According to US10829438B2, “Neprilysin inhibitors” (THERAVANCE BIOPHARMA R&D IP, LLC, priority 2012, dated 2020):
Where two headings read alike, the source gives them in different places.

Target: human NEP (Homo sapiens (Human), UniProt P08473)
Assay: In vitro enzyme inhibition assay at human NEP (fluorogenic peptide substrate)
Format: biochemical
Procedure: In Vitro Assays for the Quantitation of Inhibitor Potencies (IC50) at Human and Rat NEP, and Human ACE
The inhibitory activities of compounds at human and rat neprilysin (EC 3.4.24.11; NEP) and human angiotensin converting enzyme (ACE) were determined using in vitro assays as described below.
Recombinant human NEP and recombinant human ACE were obtained commercially (R&D Systems, Minneapolis, Minn., catalog numbers 1182-ZN and 929-ZN, respectively). The fluorogenic peptide substrate Mca-D-Arg-Arg-Leu-Dap-(Dnp)-OH (Medeiros et al. (1997) Braz. J. Med. Biol. Res. 30:1157-62; Anaspec, San Jose, Calif.) and Abz-Phe-Arg-Lys(Dnp)-Pro-OH (Araujo et al. (2000) Biochemistry 39:8519-8525; Bachem, Torrance, Calif.) were used in the NEP and ACE assays respectively.
The assays were performed in 384-well white opaque plates at 37° C. using the fluorogenic peptide substrates at a concentration of 10 μM in Assay Buffer (NEP: 50 mM HEPES, pH 7.5, 100 mM NaCl, 0.01% polyethylene glycol sorbitan monolaurate (Tween-20), 10 μM ZnSO4; ACE: 50 mM HEPES, pH 7.5, 100 mM NaCl, 0.01% Tween-20, 1 μM ZnSO4).
Test compounds were assayed over the range of concentrations from […] to 20 μM. Test compounds were added to the enzymes and incubated for 30 minute at 37° C. prior to initiating the reaction by the addition of substrate. Reactions were terminated after 20 minutes of incubation at 37° C. by the addition of glacial acetic acid to a final concentration of 3.6% (v/v).
Plates were read on a fluorometer with excitation and emission wavelengths set to 320 nm and 405 nm, respectively. Inhibition constants were obtained by nonlinear regression of the data using the equation (GraphPad Software, Inc., San Diego, Calif.): v=v0/[1+(I/K′)] where v is the reaction rate, v0 is the uninhibited reaction rate, I is the inhibitor concentration and K′ is the apparent inhibition constant.

[1] = recombinant human NEP, 30 minute pre-incubation at 37° C., fluorogenic substrate 10 μM
[2] = recombinant human NEP, 30 minute pre-incubation at 37° C., fluorogenic substrate 10 μM, read-out: pKi value at human NEP (converted)

Sequence of human NEP (P08473 52-750): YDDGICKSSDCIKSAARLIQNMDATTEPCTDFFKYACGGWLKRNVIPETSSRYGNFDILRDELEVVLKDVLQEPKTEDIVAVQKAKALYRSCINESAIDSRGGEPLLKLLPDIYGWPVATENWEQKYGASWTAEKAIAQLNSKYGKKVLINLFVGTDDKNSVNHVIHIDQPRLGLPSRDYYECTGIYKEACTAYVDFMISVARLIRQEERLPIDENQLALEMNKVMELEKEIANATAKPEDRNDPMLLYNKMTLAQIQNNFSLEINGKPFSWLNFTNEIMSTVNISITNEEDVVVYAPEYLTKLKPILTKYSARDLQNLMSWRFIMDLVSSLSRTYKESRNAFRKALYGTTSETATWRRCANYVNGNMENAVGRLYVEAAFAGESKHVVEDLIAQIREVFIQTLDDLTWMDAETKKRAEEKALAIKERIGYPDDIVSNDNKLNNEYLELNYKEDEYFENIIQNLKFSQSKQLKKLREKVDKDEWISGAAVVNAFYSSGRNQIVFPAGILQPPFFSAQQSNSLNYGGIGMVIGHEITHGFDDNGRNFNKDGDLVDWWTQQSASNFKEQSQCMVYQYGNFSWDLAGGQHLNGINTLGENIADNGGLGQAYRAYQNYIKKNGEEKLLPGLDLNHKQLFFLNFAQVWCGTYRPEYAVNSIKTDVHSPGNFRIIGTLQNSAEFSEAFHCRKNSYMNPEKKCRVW

Ki [2] [nM]	Compound	also measured
–	CC(C)[C@@H](N)C(=O)OCOn1nnc2ccc(C(=O)N[C@H](Cc3ccc(-c4cccc(Cl)c4)cc3)C[C@@H](O)C(=O)O)cc21 [Example 1L, (2R,4R)-4-{[3-((R)-2-Amino-3-methylbutyryloxymethoxy)-3H-benzotriazole-5-carbonyl]amino}-5-(3′-chlorobiphenyl-4-yl)-2-hydroxy-pentanoic Acid]	pKi value at human NEP [1]: ≥9.0
–	CC(=O)OCOn1nnc2ccc(C(=O)N[C@H](Cc3ccc(-c4cccc(Cl)c4)cc3)C[C@@H](O)C(=O)O)cc21 [Example 1G, (2R,4R)-4-[(3-Acetoxymethoxy-3H-benzotriazole-5-carbonyl)amino]-5-(3′-chlorobiphenyl-4-yl)-2-hydroxypentanoic Acid]	pKi value at human NEP [1]: ≥9.0
≤ 1	O=C(N[C@H](Cc1ccc(-c2cc(Cl)ccc2F)cc1)C[C@@H](O)C(=O)O)c1cn(O)nn1 [Example 8A, (2R,4R)-5-(5′-Chloro-2′-fluorobiphenyl-4-yl)-2-hydroxy-4-[(1-hydroxy-1H-[1,2,3]triazole-4-carbonyl)amino]pentanoic Acid]	–
≤ 1	COc1cc(C(=O)N[C@H](Cc2ccc(-c3cccc(Cl)c3)cc2)C[C@@H](O)C(=O)O)on1 [Example 7A, (2R,4R)-5-(3′-Chlorobiphenyl-4-yl)-2-hydroxy-4-[(3-methoxyisoxazole-5-carbonyl)amino]pentanoic Acid]	–
–	O=C(N[C@H](Cc1ccc(-c2cccc(Cl)c2)cc1)C[C@@H](O)C(=O)O)c1ccc2nnn(OCc3ccccc3)c2c1 [Example 1I, (2R,4R)-4-[(3-Benzyloxy-3H-benzotriazole-5-carbonyl)amino]-5-(3′-chlorobiphenyl-4-yl)-2-hydroxypentanoic Acid]	Ki: 12.6 to 100 nM
≤ 1	CC(=O)c1cc(C(=O)N[C@H](Cc2ccc(-c3ccccc3)cc2)C[C@@H](O)C(=O)O)[nH]n1 [formula X′, (2R,4R)-4-[(5-acetyl-2H-pyrazole-3-carbonyl)amino]-5-biphenyl-4-yl-2-hydroxypentanoic acid]	–
≤ 1	Cn1nc(C(=O)N[C@H](Cc2ccc(-c3cccc(Cl)c3)cc2)C[C@@H](O)C(=O)O)cc1O [Example 2A, (2R,4R)-5-(3′-Chlorobiphenyl-4-yl)-2-hydroxy-4-[(5-hydroxy-1-methyl-1H-pyrazole-3-carbonyl)amino]pentanoic Acid]	–
≤ 1	O=C(N[C@H](Cc1ccc(-c2cccc(Cl)c2)cc1)C[C@@H](O)C(=O)O)c1nn(-c2ccccc2)c(=O)[nH]1 [Example 9A, (2R,4R)-5-(3′-Chlorobiphenyl-4-yl)-2-hydroxy-4-[(5-oxo-1-phenyl-4,5-dihydro-1H-[1,2,4]triazole-3-carbonyl)amino]pentanoic Acid]	–
–	O=C(N[C@H](Cc1ccc(-c2cccc(Cl)c2)cc1)C[C@@H](O)C(=O)O)c1cc(-c2ccccc2F)no1 [Example 6A, (2R,4R)-5-(3′-Chlorobiphenyl-4-yl)-4-{[3-(2-fluorophenyl)isoxazole-5-carbonyl]amino}-2-hydroxypentanoic Acid]	pKi value at human NEP [1]: ≥9.0
≤ 1	CC(=O)c1cc(C(=O)N[C@H](Cc2ccc(-c3cccc(Cl)c3)cc2)C[C@@H](O)C(=O)O)n[nH]1 [Example 5B, (2R,4R)-4-[(5-Acetyl-1H-pyrazole-3-carbonyl)amino]-5-(3′-chlorobiphenyl-4-l)-2-hydroxypentanoic Acid]	–
≤ 1	CC(=O)c1cc(C(=O)N[C@H](Cc2ccc(-c3cc(Cl)ccc3F)cc2)C[C@@H](O)C(=O)O)n[nH]1 [Example 4B, (2R,4R)-4-[(5-Acetyl-1H-pyrazole-3-carbonyl)amino]-5-(5′-chloro-2′-fluorobiphenyl-4-yl)-2-hydroxypentanoic Acid]	–
≤ 1	O=C(N[C@H](Cc1ccc(-c2cccc(Cl)c2)cc1)C[C@@H](O)C(=O)O)c1cc(O)n(-c2ccccn2)n1 [Example 3A, (2R,4R)-5-(3′-Chlorobiphenyl-4-yl)-2-hydroxy-4-[(5-hydroxy-1-pyridin-2-yl-1H-pyrazole-3-carbonyl)amino]pentanoic Acid]	–

Compound	Ki [2] [nM]	also measured
CCCC(=O)OCOn1nnc2ccc(C(=O)N[C@H](Cc3ccc(-c4cccc(Cl)c4)cc3)C[C@@H](O)C(=O)O)cc21 [Example 1M, (2R,4R)-4-[(3-Butyryloxymethoxy-3H-benzotriazole-5-carbonyl)amino]-5-(3′-chlorobiphenyl-4-yl)-2-hydroxypentanoic Acid]	1.26 to 10	–
O=C(N[C@H](Cc1ccc(-c2cccc(Cl)c2)cc1)C[C@@H](O)C(=O)O)c1ccc2nnn(O)c2c1 [Example 1A, (2R,4R)-5-(3′-Chlorobiphenyl-4-yl)-2-hydroxy-4-[(3-hydroxy-3H-benzotriazole-5-carbonyl)amino]pentanoic Acid]	≤ 1	–
